Experimental data reported in PubChem BioAssay AID1963436 (Molecular Pharmacology Branch, DTP, NCI, 2024).
Values joined by “and” are separate entries in the source; they are usually repeats but may differ in a detail not shown here. Identical values can stand only once.

Test system: OVCAR-5 complex spheroid (HUVEC/MSC), viability % T/C
Assay: Anticancer human tumor OVCAR-5 cell line growth inhibition [Asc];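 further: spheroids exposed to agents for 7 days before readout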;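 on viability, T/C: 100% = DMSO vehicle-treated wells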
Conditions: for viability, T/C: stronger effect = lower value
Protocol: Multicellular complex tumor spheroid response to apoptosis pathway targeting inhibitors Alrizomadlin, Pelcitoclax, and Dasminapant in combination with a variety of drugs and investigational agents in selected tumor cell lines
The MDM2 inhibitor alrizomadlin, the Bcl-2/Bcl-xL inhibitor pelcitoclax, and the IAPs inhibitor dasminapant were evaluated both individually and in combination with standard of care and investigational anticancer small molecules within a complex spheroid model of solid tumors. . Complex spheroids include a stromal component modeled by human endothelial cells (HUVEC) and fibroblasts modeled by human mesenchymal stem cells (MSCs). The concentration ranges selected for each drug and investigational agent were based upon clinically achievable concentrations if the clinical Cmax of the agent was known.
Compounds. The drugs and investigational agents: alrizomadlin (APG-115; NSC831270), pelcitoclax (APG-1252; NSC835773), dasminapant (APG-1387;NSC834197), TAK-243 (NSC785004), copanlisib (NSC809693), olaparib (NSC753686), talazoparib (NSC767125), cobimetinib (NSC 768068), eltanexor (KPT-8602, NSC 794443), abemaciclib (NSC 768073), sotorasib (NSC818433), adagrasib (NSC 831453), MRTX-1133 (NSC 836407), Iadademestat (ORY1001, NSC 806812), and RMC-4630 (NSC839698), were obtained from the NCI Developmental Therapeutics Program Chemical Repository. The FDA-approved anticancer drug set is available from the Developmental Therapeutics Program at https://dtp.cancer.gov/organization/dscb/obtaining/available plates.htm. […] The stock solutions were prepared in dimethyl sulfoxide (DMSO, Sigma-Aldrich, St. Louis, MO, cat. D2650) at 800-fold the tested concentration and stored at -70 degrees C prior to their use. All drugs and investigational agents were tested over a range starting from a high concentration at or near the clinical Cmax and decreasing in half-log increments. If the clinical Cmax for an agent had not been determined, the highest concentration tested was 10 microM.
The patient-derived cancer (PDC) cell lines include five colon adenocarcinomas: 186277-243-T-J2-PDC, 616215-338-R-J1-PDC, 439559-082-T-J2-PDC, 463943-066-T-J2-PDC, and 519858-162-T-J1-PDC; three pancreatic carcinomas: 323965-272-R-J2-PDC, 521955-158-R6-J3-PDC, and 521955-158-R2-J5-PDC; two uterine sarcomas: 327498-152-R-J2-PDC and 993429-296-R-J1-PDC; two rhabdomyosarcomas: 755483-174-R-J1-PDC and 772245-204-R-J1-PDC; two soft tissue sarcomas: 126254-015-R-J1-PDC and 494315-158-R-J1-PDC; two malignant fibrous histiocytomas: 317291-083-R-J1-PDC and 596521-263-R-J1-PDC; two breast carcinomas: 171881-019-R-J1-PDC and 885512-296-R-J2-PDC; and one ovarian carcinoma: 6556581-035-R-J-PDC were obtained from the NCI PDMR, (https://pdmr.cancer.gov). The established cell lines HSSY-2 synovial sarcoma (RRID:CVCL 8719), SYO-1 synovial sarcoma (RRID:CVCL_7146), MPNST malignant peripheral neural sheath tumor were obtained from the Sloan Kettering Institute. The following established cell lines were purchased from the American Type Culture Collection (ATCC, Manassas, VA), Sor the received from the NCI repository:, PANC-1 pancreatic carcinoma (CRL-1469, RRID:CVCL_0480), OVCAR-5 ovarian carcinoma (RRID:CVCL_1628), OVCAR-8 ovarian carcinoma (RRID:CVCL_1629), , MCF-7 breast carcinoma (CRL-12584, RRID:CVCL_0031), MDA-MB-231 breast carcinoma (CRL-12532, RRID:CVCL_0062), NCI-H1876 small cell lung carcinoma (CRL-5902, RRID:CVCL_1503), NCI-H510A small cell lung carcinoma (HTB-184, RRID:CVCL_1565), NCI-H1417 (CRL-5869, RRID:CVCL_1469), and NCI-H196 small cell lung carcinoma (CRL-5823, RRID:CVCL_1509). Dr. Peter Houghton (Greehey Children's Cancer Research Institute, University of Texas Health Science Center, San Antonio, TX) provided Rh-18 rhabdomyosarcoma (RRID:CVCL_1659). Pooled donor human umbilical vein endothelial cells (HUVEC, Lonza, cat. CC-2519) and human mesenchymal stem cells (hMSC, Lonza, cat. PT-2501) were purchased from Lonza (Walkersville, MD).
Cell Culture. […]

[1] = compound alone, run of 09/27/2022

Structure (SMILES) | viability, T/C (compound 0.0316 µM) | viability, T/C (compound 0.1 µM) | viability, T/C (compound 0.316 µM) | viability, T/C (compound 1 µM) | viability, T/C (compound 3.16 µM) | IC50 (curve of compound) | viability, T/C (compound 0.00316 µM) | viability, T/C (compound 0.01 µM) | further results
C#Cc1c(F)ccc2cc(O)cc(-c3ncc4c(N5CC6CCC(C5)N6)nc(OCC56CCCN5CC(F)C6)nc4c3F)c12 (configuration not stated) | 114% and 104% and 101% | 112% and 100% and 106% | 92.9% and 93.9% and 84.2% | 80.5% and 88.2% and 96.8% | 78.7% and 72.7% and 75% | 7560 nM and 6900 nM and 7160 nM | – | – | viability, T/C (compound 10 µM): 40.5% and 39.1% and 39.3%
C=C(F)C(=O)N1CCN(c2nc(OCC3CCCN3C)nc3c2CCN(c2cccc4cccc(Cl)c24)C3)CC1CC#N (configuration not stated) | 102% and 108% and 105% | 100% and 107% and 97.9% | 83.5% and 91.4% and 89.7% | 54.5% and 60.8% and 67.8% | 10.6% and 8.67% and 19.2% | 1050 nM and 1210 nM and 1490 nM | – | – | viability, T/C (compound 10 µM): 0.23% and 0.22% and 0.3%
C=CC(=O)N1CCN(c2nc(=O)n(-c3c(C)ccnc3C(C)C)c3nc(-c4c(O)cccc4F)c(F)cc23)C(C)C1 (configuration not stated) | 98.8% and 111% and 105% | 103% and 112% and 98% | 110% and 116% and 104% | 122% and 114% and 107% | 120% and 115% and 111% | > 10000 nM | – | – | viability, T/C (compound 10 µM): 97% and 100% and 104%
CCN1C(C(=O)NC23CCC(C(=O)O)(CC2)CC3)C(c2cccc(Cl)c2F)C2(C(=O)Nc3cc(Cl)ccc32)C12CCCCC2 (configuration not stated) | – | – | – | – | – | > 3000 nM | – | – | viability, T/C (compound 0.00949 µM): 101% and 109%; viability, T/C (compound 0.03 µM): 97.1% [middle of 15 runs]; viability, T/C (compound 0.0949 µM): 93.8% [middle of 15 runs]; viability, T/C (compound 0.3 µM): 95.7% [middle of 15 runs]; viability, T/C (compound 0.949 µM): 99.8% [middle of 15 runs]; viability, T/C (compound 3 µM): 103% [middle of 15 runs]; IC50 [1]: > 3000 nM
CCN1CCN(Cc2ccc(Nc3ncc(F)c(-c4cc(F)c5nc(C)n(C(C)C)c5c4)n3)nc2)CC1 | 70.1% and 70.8% and 77.2% | 66.8% and 66.6% and 69.3% | 71.2% and 64.5% and 68.4% | 60.4% and 55.5% and 60.6% | – | > 1000 nM | 96.2% and 105% and 97.1% | 89% and 87.6% and 79.2% | –
CNC(C)C(=O)NC1CN(S(=O)(=O)c2cccc(S(=O)(=O)N3CCC4CCC(C(=O)NC(c5ccccc5)c5ccccc5)N4C(=O)C(NC(=O)C(C)NC)C3)c2)CCC2CCC(C(=O)NC(c3ccccc3)c3ccccc3)N2C1=O (configuration not stated) | 83.1% [middle of 15 runs] | 80.8% [middle of 15 runs] | 81.5% [middle of 15 runs] | 80.3% [middle of 15 runs] | – | > 1000 nM | 97.5% and 104% | 95.1% [middle of 15 runs] | IC50 (compound alone, run of 10/03/2022): > 1000 nM
COc1c(OCCCN2CCOCC2)ccc2c3n(c(=NC(=O)c4cnc(N)nc4)nc12)CCN3 | 49.5% and 55% and 55.8% | 26.1% and 29.9% and 42% | 20.3% and 21.6% and 24.1% | 9.88% and 9.15% and 11.8% | – | 32.4 nM and 43.9 nM and 55.3 nM | 85% and 93% and 92.1% | 76.2% and 90.5% and 80.5% | –
Cc1c(S(C)(=O)=O)c(-c2cc(F)cc(N3CCN(c4ccc(NS(=O)(=O)c5ccc(NC(CCN6CCC(C(=O)OCCCP(=O)(O)O)CC6)CSc6ccccc6)c(S(=O)(=O)C(F)(F)F)c5)cc4)CC3)c2)c(-c2ccc(Cl)cc2)n1C(C)C (configuration not stated) | – | – | 92.2% [middle of 14 runs] | 90.3% [middle of 14 runs] | 88.8% [middle of 13 runs] | – | – | – | IC50 [1]: > 10000 nM
Cc1nc(N2CCC3(CC2)COC(C)C3N)c(CO)nc1Sc1ccnc(N)c1Cl (configuration not stated) | – | – | – | – | – | > 3000 nM | – | – | viability, T/C (compound 0.00949 µM): 109% and 97.2% and 107%; viability, T/C (compound 0.03 µM): 99.2% and 97.7% and 99.4%; viability, T/C (compound 0.0949 µM): 84.9% and 85.5% and 83.2%; viability, T/C (compound 0.3 µM): 84.3% and 72.2% and 87.1%; viability, T/C (compound 0.949 µM): 77.6% and 64.7% and 77.7%; viability, T/C (compound 3 µM): 62% and 60.2% and 56.3%
Cn1ncnc1[C@H]1c2n[nH]c(=O)c3cc(F)cc(c23)N[C@@H]1c1ccc(F)cc1 | 92.8% and 92.5% and 90.8% | 91.8% and 88.3% and 93.8% | – | – | – | > 100 nM | 99.5% and 95.4% and 93.1% | 90.6% and 93.5% and 96.7% | viability, T/C (compound 0.000316 µM): 104% and 94.5% and 106%; viability, T/C (compound 0.001 µM): 108% (2×) and 101%
NC(=O)C(=Cn1cnc(-c2cc(C(F)(F)F)cc(C(F)(F)F)c2)n1)c1cncnc1 | – | – | – | – | – | 265 nM and 212 nM and > 300 nM | – | – | viability, T/C (compound 0.000949 µM): 102% and 107% and 95.8%; viability, T/C (compound 0.003 µM): 105% and 93.1% and 99.5%; viability, T/C (compound 0.00949 µM): 88.8% and 83.2% and 86.8%; viability, T/C (compound 0.03 µM): 89.3% and 78.8% and 86%; viability, T/C (compound 0.0949 µM): 78.5% and 71.5% and 81.5%; viability, T/C (compound 0.3 µM): 45.6% and 40.4% and 54.9%
NC1CCC(NC2CC2c2ccccc2)CC1 (configuration not stated) | 105% and 93.5% and 87% | 90.1% and 91.9% and 91.5% | – | – | – | > 100 nM | 89.8% and 82% and 93.5% | 90.4% and 90% and 91.2% | viability, T/C (compound 0.000316 µM): 97.1% and 101% and 95.9%; viability, T/C (compound 0.001 µM): 97.4% and 108% and 97%
O=C(c1cc(Cc2n[nH]c(=O)c3ccccc23)ccc1F)N1CCN(C(=O)C2CC2)CC1 | 106% and 108% and 101% | 98.9% and 98.3% and 106% | 92.3% and 94.9% and 95% | 96% and 91.9% and 93.1% | 93.5% and 97.9% and 94.9% | > 10000 nM | – | – | viability, T/C (compound 10 µM): 76.2% and 81% and 83.6%
O=C(c1ccc(F)c(F)c1Nc1ccc(I)cc1F)N1CC(O)([C@@H]2CCCCN2)C1 | 69.4% and 74.8% and 72.2% | 53% and 61.5% and 50.5% | 44.4% and 51% and 47.7% | 30.7% and 36% and 33.2% | – | 134 nM and 265 nM and 103 nM | 97.8% and 97.6% and 103% | 96.5% and 97.5% and 102% | –
